From article PMC6691788, “Design and synthesis of phthalazine-based compounds as potent anticancer agents with potential antiangiogenic activity via VEGFR-2 inhibition” (Journal of Enzyme Inhibition and Medicinal Chemistry, 2019)

Tests used:
[1] = test system: MDA-MB 231/ATCC; assay: NCI 60 cell panel SRB screen; type: cell-based; details: Homo sapiens, MDA-MB-231, read-out: percent cell growth promotion
[2] = test system: MCF7; assay: NCI 60 cell panel SRB screen; type: cell-based; details: Homo sapiens, MCF7, read-out: percent cell growth promotion
[3] = test system: T-47D; assay: NCI 60 cell panel SRB screen; type: cell-based; details: Homo sapiens, T47D, read-out: percent cell growth promotion
[4] = test system: CAKI-1; assay: NCI 60 cell panel SRB screen; type: cell-based, human; details: Homo sapiens; CAKI-1, single dose 10 μM; read-out: percent cell growth promotion
[5] = test system: K-562; assay: NCI 60 cell panel SRB screen; type: cell-based; details: Homo sapiens, K562; K-562, single dose 10 μM; read-out: percent cell growth promotion
[6] = test system: MOLT-4; assay: NCI 60 cell panel SRB screen; type: cell-based; details: Homo sapiens; MOLT-4, single dose 10 μM; read-out: percent cell growth promotion
[7] = test system: DU-145; assay: NCI 60 cell panel SRB screen; type: cell-based; details: Homo sapiens; DU-145, single dose 10 μM; read-out: percent cell growth promotion
[8] = test system: NCI-H522; assay: NCI 60 cell panel SRB screen; type: cell-based; details: Homo sapiens; NCI-H522, single dose 10 μM; read-out: percent cell growth promotion
[9] = test system: HT29; assay: NCI 60 cell panel SRB screen; type: cell-based; details: Homo sapiens, HT-29; HT29, single dose 10 μM; read-out: percent cell growth promotion
[10] = test system: HL-60(TB); assay: NCI 60 cell panel SRB screen; type: cell-based; details: Homo sapiens, single dose 10 μM, read-out: percent cell growth promotion
[11] = test system: UACC-257; assay: NCI 60 cell panel SRB screen; type: cell-based; details: Homo sapiens, UACC-257, read-out: percent cell growth promotion
[12] = test system: IGROV1; assay: NCI 60 cell panel SRB screen; type: cell-based; details: Homo sapiens, IGROV-1; IGROV1, single dose 10 μM; read-out: percent cell growth promotion
[13] = test system: OVCAR-3; assay: NCI 60 cell panel SRB screen; type: cell-based; details: Homo sapiens; OVCAR-3, single dose 10 μM; read-out: percent cell growth promotion
[14] = test system: MDA-MB-435; assay: NCI 60 cell panel SRB screen; type: cell-based; details: Homo sapiens, MDA-MB-435, read-out: percent cell growth promotion
[15] = target: T1, VEGFR-2 tyrosine kinase (Homo sapiens, UniProt P35968); assay: In vitro VEGFR-2 tyrosine kinase assay (BPS Bioscience); type: biochemical; details: read-out: VEGFR-2 % inhibition; 10 μM concentration
T1 construct: purchased BPS Bioscience 40301
Method: The VEGFR tyrosine kinase assays were performed at BPS Bioscience (www.bpsbioscience.com). All the synthesised compounds representing the six series were evaluated for their ability to inhibit VEGFR-2 tyrosine kinase at single dose of 10 µM.
The VEGFR tyrosine kinase activity at single dose concentration of 10 μM was carried out by BPS Bioscience (www.bpsbioscience.com). VEGFR (BPS#40301) served as the enzyme source and Poly (Glu, Tyr) sodium salt, (4:1, Glu:Tyr) (Sigma#P7244) served as the standardized substrate & Kinase-Glo Plus Luminescence kinase assay kit (Promega#V3772). The IC50 determination was carried out where quality control testing is routinely performed on each of the targets to insure compliance to acceptable standards. ^33P-ATP was purchased from Perkin Elmer and ADP-Glo^TM was purchased from Promega. All other materials were of standard laboratory grade.
The VEGFR tyrosine kinase activity was performed using Kinase-Glo Plus luminescence kinase assay kit (Promega). It measures kinase activity by quantitating the amount of ATP remaining in solution following a kinase reaction. The luminescent signal from the assay is correlated with the amount of ATP present and is inversely correlated with the amount of kinase activity. The compounds were diluted to 100 μM in 10% DMSO and […] of the dilution was added to a […] reaction so that the final concentration of DMSO is 1% in all of reactions. All of the enzymatic reactions were conducted at 30 °C for 40 min. The 50 μl reaction mixture contains […], pH 7.4, […], 0.1 mg/ml BSA, 0.2 mg/ml Poly (Glu, Tyr) substrate, 10 μM ATP and VEGFR. After the enzymatic reaction, […] of Kinase-GloPlus Luminescence kinase assay solution (Promega) was added to each reaction and incubate the plate for 5 min at room temperature. Luminescence signal was measured using a BioTek Synergy 2 microplate reader. The protein kinase assays used to determine IC50 value were performed using ADP-GloTM assay kit from Promega which measures the generation of ADP by the protein kinase. Generation of ADP by the protein kinase reaction leads to an increase in luminescence signal in the presence of ADP-GloTM assay kit. The assay was started by incubating the reaction mixture in a 96-well plate at 30 °C for 30 min. After the 30 min incubation period, the assay was terminated by the addition of […] of ADP-GloTM Reagent (Promega). The 96 well plate was shaken and then incubated for 40 min at ambient temperature. […] of Kinase detection reagent was added, the 96-well reaction plate was then read using the ADP-Glo Luminescences Protocol on a GloMax plate reader (Promega: Catalog #E7031). Blank control was set up that included all the assay components except the addition of appropriate substrate (replace with equal volume of kinase assay buffer). The corrected activity for each protein kinase target was determined by removing the blank control value.
VEGFR activity assays were performed in duplicate at each concentration. The luminescence data were analyzed using the computer software, Graphpad Prism. The difference between luminescence intensities in the absence of VEGFR (Lut) and in the presence of VEGFR (Luc) was defined as 100% activity (Lut - Luc). […] IC50 determination for inhibitor against VEGFR was estimated by generating a graph of log inhibitor vs normalized response with variable using the Prism software.

[16] = test system: BT-549; assay: NCI 60 cell panel SRB screen; type: cell-based; details: Homo sapiens, BT-549, read-out: percent cell growth promotion

T1 sequence (P35968 20-1356): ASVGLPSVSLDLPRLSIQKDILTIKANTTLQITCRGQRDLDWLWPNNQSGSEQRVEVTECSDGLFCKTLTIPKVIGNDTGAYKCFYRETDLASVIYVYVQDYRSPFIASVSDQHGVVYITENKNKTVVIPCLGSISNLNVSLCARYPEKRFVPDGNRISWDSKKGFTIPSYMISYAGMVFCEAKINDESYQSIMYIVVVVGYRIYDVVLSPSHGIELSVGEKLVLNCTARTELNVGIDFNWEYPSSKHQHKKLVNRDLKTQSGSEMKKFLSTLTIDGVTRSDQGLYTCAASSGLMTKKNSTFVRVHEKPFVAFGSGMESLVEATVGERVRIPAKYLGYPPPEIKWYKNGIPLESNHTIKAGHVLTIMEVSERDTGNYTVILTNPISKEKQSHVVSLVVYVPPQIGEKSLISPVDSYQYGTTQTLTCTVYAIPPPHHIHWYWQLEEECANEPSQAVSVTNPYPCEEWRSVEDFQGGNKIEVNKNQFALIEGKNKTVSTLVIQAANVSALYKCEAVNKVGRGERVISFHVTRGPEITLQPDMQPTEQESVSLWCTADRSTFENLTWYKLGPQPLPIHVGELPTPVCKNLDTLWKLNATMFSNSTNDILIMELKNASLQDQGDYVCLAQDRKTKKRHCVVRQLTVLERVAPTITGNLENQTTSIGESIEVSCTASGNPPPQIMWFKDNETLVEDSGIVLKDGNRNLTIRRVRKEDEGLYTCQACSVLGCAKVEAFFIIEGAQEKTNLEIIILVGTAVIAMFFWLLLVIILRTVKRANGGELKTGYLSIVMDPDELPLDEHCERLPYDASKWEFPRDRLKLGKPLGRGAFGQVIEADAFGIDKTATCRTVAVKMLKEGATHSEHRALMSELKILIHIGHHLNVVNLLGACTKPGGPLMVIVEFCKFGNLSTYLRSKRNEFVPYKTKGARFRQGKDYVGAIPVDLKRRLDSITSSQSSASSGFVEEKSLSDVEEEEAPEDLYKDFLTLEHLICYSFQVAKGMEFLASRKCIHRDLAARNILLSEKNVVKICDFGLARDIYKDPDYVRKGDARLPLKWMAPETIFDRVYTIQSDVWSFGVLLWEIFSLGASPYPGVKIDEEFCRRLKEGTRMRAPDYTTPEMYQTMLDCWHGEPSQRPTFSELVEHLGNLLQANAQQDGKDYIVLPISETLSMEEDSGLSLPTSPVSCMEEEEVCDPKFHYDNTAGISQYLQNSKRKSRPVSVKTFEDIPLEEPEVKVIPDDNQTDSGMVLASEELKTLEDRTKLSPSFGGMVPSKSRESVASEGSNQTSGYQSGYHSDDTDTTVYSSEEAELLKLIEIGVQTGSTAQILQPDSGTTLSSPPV

SMILES | activity at 10 µM [1] | activity at 10 µM [2] | activity at 10 µM [3] | activity at 10 µM [4] | activity at 10 µM [5] | activity at 10 µM [6] | activity at 10 µM [7] | activity at 10 µM [8] | activity at 10 µM [9] | activity at 10 µM [10] | activity at 10 µM [11] | activity at 10 µM [12] | activity at 10 µM [13] | activity at 10 µM [14] | inhibition at 10 µM [15] | activity at 10 µM [16]
Cc1nnc(N2CCN(c3ccccn3)CC2)c2ccccc12 [Compound 8i, 1-Methyl-4–(4-(pyridin-2-yl)piperazin-1-yl)phthalazine] | 117% | 89.1% | 96% | 94.8% | 101% | 96.1% | 111% | 94.5% | 91.2% | 108% | 98.5% | 112% | 114% | 99.6% | 6% | –
O=C(Nc1ccc(Cl)cc1)Nc1ccc(Oc2nnc(Cl)c3ccccc23)cc1 [Compound 13b, 1–(4-Chlorophenyl)-3–(4-(4-chlorophthalazin-1-yloxy)phenyl)urea] | 67.5% | 86.2% | 70.5% | 99.1% | 93.2% | – | 86.8% | 52.5% | 95.8% | 67.3% | 89.9% | 79.2% | 85.4% | 93.9% | 38% | 96.8%
Cc1nnc(N2CCN(c3ccccc3F)CC2)c2ccccc12 [Compound 8h, 1–(4-(2-Fluorophenyl)piperazin-1-yl)-4-methylphthalazine] | 121% | 86.5% | 82.3% | 86.8% | 110% | 102% | 107% | 89% | 90% | 110% | 95.3% | 109% | 110% | 93.5% | 9% | –
